Source: the supplement of paper PMC10307832

Assays:
Assay in all cases: relative viability (nuclei count vs DMSO), 5 days (fraction); higher = more cells survive
LU99A = test system: LU99A
In short: (§1)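 Five library-drug doses in √10 steps were combined with a fixed anchor-drug dose, or a single drug was given alone, by pin tool to lung cancer cell lines in 1536-well plates the day after seeding. Nuclei were stained and counted after 5 days. Relative viability is the nuclei count in treated wells over that in vehicle wells, taken as the median of duplicate plates.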

NCI-H2347 = test system: NCI-H2347
In short: as §1

LC-2-ad = test system: LC-2-ad
In short: as §1

NCI-H2085 = test system: NCI-H2085
In short: as §1

SW 1573 = test system: SW 1573
In short: as §1

HCC-78 = test system: HCC-78
In short: as §1

PC-14 = test system: PC-14
In short: as §1

UMC-11 = test system: UMC-11
In short: as §1

HARA = test system: HARA
In short: as §1

NCI-H1355 = test system: NCI-H1355
In short: as §1

NCI-H2023 = test system: NCI-H2023
In short: as §1

NCI-H2126 = test system: NCI-H2126
In short: as §1

NCI-H1651 = test system: NCI-H1651
In short: as §1

NCI-H358 = test system: NCI-H358
In short: as §1

ABC-1 = test system: ABC-1
In short: as §1

NCI-H1993 = test system: NCI-H1993
In short: as §1

COR-L23 = test system: COR-L23
In short: as §1

NCI-H650 = test system: NCI-H650
In short: as §1

NCI-H838 = test system: NCI-H838
In short: as §1

EPLC-272H = test system: EPLC-272H
In short: as §1

NCI-H1915 = test system: NCI-H1915
In short: as §1

HCC-15 = test system: HCC-15
In short: as §1

NC(=O)Nc1cc(-c2cccc(F)c2)sc1C(=O)N[C@H]1CCCNC1 [AZD7762] + C[C@@H](Oc1cc(-c2cnn(C3CCNCC3)c2)cnc1N)c1c(Cl)ccc(F)c1Cl [Crizotinib] (partner 1 µM)
relative viability (LU99A; first compound 0.01 µM): 0.725 | relative viability (LU99A; first compound 0.03162 µM): 0.67 | relative viability (LU99A; first compound 0.1 µM): 0.602 | relative viability (LU99A; first compound 0.3162 µM): 0.587 | relative viability (LU99A; first compound 1 µM): 0.228 | relative viability (NCI-H2347; first compound 0.01 µM): 1.01 | relative viability (NCI-H2347; first compound 0.03162 µM): 0.918 | relative viability (NCI-H2347; first compound 0.1 µM): 0.734 | relative viability (NCI-H2347; first compound 0.3162 µM): 0.928 | relative viability (NCI-H2347; first compound 1 µM): 0.67 | relative viability (LC-2-ad; first compound 0.01 µM): 0.551 | relative viability (LC-2-ad; first compound 0.03162 µM): 0.483 | relative viability (LC-2-ad; first compound 0.1 µM): 0.52 | relative viability (LC-2-ad; first compound 0.3162 µM): 0.522 | relative viability (LC-2-ad; first compound 1 µM): 0.295 | relative viability (NCI-H2085; first compound 0.01 µM): 1.01 | relative viability (NCI-H2085; first compound 0.03162 µM): 0.889 | relative viability (NCI-H2085; first compound 0.1 µM): 0.839 | relative viability (NCI-H2085; first compound 0.3162 µM): 0.853 | relative viability (NCI-H2085; first compound 1 µM): 0.644 | relative viability (SW 1573; first compound 0.01 µM): 0.976 | relative viability (SW 1573; first compound 0.03162 µM): 0.879 | relative viability (SW 1573; first compound 0.1 µM): 0.907 | relative viability (SW 1573; first compound 0.3162 µM): 0.934 | relative viability (SW 1573; first compound 1 µM): 0.738 | relative viability (HCC-78; first compound 0.01 µM): 0.364 | relative viability (HCC-78; first compound 0.03162 µM): 0.35 | relative viability (HCC-78; first compound 0.1 µM): 0.317 | relative viability (HCC-78; first compound 0.3162 µM): 0.326 | relative viability (HCC-78; first compound 1 µM): 0.255 | relative viability (PC-14; first compound 0.01 µM): 0.943 | relative viability (PC-14; first compound 0.03162 µM): 0.859 | relative viability (PC-14; first compound 0.1 µM): 0.922 | relative viability (PC-14; first compound 0.3162 µM): 0.81 | relative viability (PC-14; first compound 1 µM): 0.41 | relative viability (UMC-11; first compound 0.01 µM): 0.713 | relative viability (UMC-11; first compound 0.03162 µM): 0.421 | relative viability (UMC-11; first compound 0.1 µM): 0.516 | relative viability (UMC-11; first compound 0.3162 µM): 0.508 | relative viability (UMC-11; first compound 1 µM): 0.142 | relative viability (HARA; first compound 0.01 µM): 1.11 | relative viability (HARA; first compound 0.03162 µM): 0.98 | relative viability (HARA; first compound 0.1 µM): 0.894 | relative viability (HARA; first compound 0.3162 µM): 1.01 | relative viability (HARA; first compound 1 µM): 0.25 | relative viability (NCI-H1355; first compound 0.01 µM): 1.02 | relative viability (NCI-H1355; first compound 0.03162 µM): 1.02 | relative viability (NCI-H1355; first compound 0.1 µM): 1.01 | relative viability (NCI-H1355; first compound 0.3162 µM): 1.14 | relative viability (NCI-H1355; first compound 1 µM): 1.03 | relative viability (NCI-H2023; first compound 0.01 µM): 0.573 | relative viability (NCI-H2023; first compound 0.03162 µM): 0.612 | relative viability (NCI-H2023; first compound 0.1 µM): 0.417 | relative viability (NCI-H2023; first compound 0.3162 µM): 0.209 | relative viability (NCI-H2023; first compound 1 µM): 0.118 | relative viability (NCI-H2126; first compound 0.01 µM): 1.01 | relative viability (NCI-H2126; first compound 0.03162 µM): 1.01 | relative viability (NCI-H2126; first compound 0.1 µM): 1.12 | relative viability (NCI-H2126; first compound 0.3162 µM): 1.04 | relative viability (NCI-H2126; first compound 1 µM): 1.05 | relative viability (NCI-H1651; first compound 0.01 µM): 1 | relative viability (NCI-H1651; first compound 0.03162 µM): 0.87 | relative viability (NCI-H1651; first compound 0.1 µM): 0.894 | relative viability (NCI-H1651; first compound 0.3162 µM): 0.862 | relative viability (NCI-H1651; first compound 1 µM): 0.714 | relative viability (NCI-H358; first compound 0.01 µM): 0.743 | relative viability (NCI-H358; first compound 0.03162 µM): 0.695 | relative viability (NCI-H358; first compound 0.1 µM): 0.581 | relative viability (NCI-H358; first compound 0.3162 µM): 0.521 | relative viability (NCI-H358; first compound 1 µM): 0.202 | relative viability (ABC-1; first compound 0.01 µM): 1.1 | relative viability (ABC-1; first compound 0.03162 µM): 1.56 | relative viability (ABC-1; first compound 0.1 µM): 0.842 | relative viability (ABC-1; first compound 0.3162 µM): 0.49 | relative viability (ABC-1; first compound 1 µM): 0.13 | relative viability (NCI-H1993; first compound 0.01 µM): 0.952 | relative viability (NCI-H1993; first compound 0.03162 µM): 0.957 | relative viability (NCI-H1993; first compound 0.1 µM): 0.729 | relative viability (NCI-H1993; first compound 0.3162 µM): 0.873 | relative viability (NCI-H1993; first compound 1 µM): 0.808 | relative viability (COR-L23; first compound 0.01 µM): 0.775 | relative viability (COR-L23; first compound 0.03162 µM): 0.656 | relative viability (COR-L23; first compound 0.1 µM): 0.616 | relative viability (COR-L23; first compound 0.3162 µM): 0.45 | relative viability (COR-L23; first compound 1 µM): 0.117 | relative viability (NCI-H650; first compound 0.01 µM): 0.882 | relative viability (NCI-H650; first compound 0.03162 µM): 0.594 | relative viability (NCI-H650; first compound 0.1 µM): 0.714 | relative viability (NCI-H650; first compound 0.3162 µM): 0.688 | relative viability (NCI-H650; first compound 1 µM): 0.466 | relative viability (NCI-H838; first compound 0.01 µM): 0.809 | relative viability (NCI-H838; first compound 0.03162 µM): 0.781 | relative viability (NCI-H838; first compound 0.1 µM): 0.762 | relative viability (NCI-H838; first compound 0.3162 µM): 0.687 | relative viability (NCI-H838; first compound 1 µM): 0.301 | relative viability (EPLC-272H; first compound 0.01 µM): 0.895 | relative viability (EPLC-272H; first compound 0.03162 µM): 1.11 | relative viability (EPLC-272H; first compound 0.1 µM): 0.967 | relative viability (EPLC-272H; first compound 0.3162 µM): 0.859 | relative viability (EPLC-272H; first compound 1 µM): 0.75 | relative viability (NCI-H1915; first compound 0.01 µM): 0.93 | relative viability (NCI-H1915; first compound 0.03162 µM): 0.919 | relative viability (NCI-H1915; first compound 0.1 µM): 0.891 | relative viability (NCI-H1915; first compound 0.3162 µM): 0.944 | relative viability (NCI-H1915; first compound 1 µM): 0.823 | relative viability (HCC-15; first compound 0.01 µM): 0.948 | relative viability (HCC-15; first compound 0.03162 µM): 0.776 | relative viability (HCC-15; first compound 0.1 µM): 0.818 | relative viability (HCC-15; first compound 0.3162 µM): 0.774 | relative viability (HCC-15; first compound 1 µM): 0.825
